In patent publication US20110171261A1, “IMMUNOGENIC COMPOSITION” (priority 2008, published 2011):

Experiments:
[1] = tested on: HBsAg specific antibodies; experiment: Anti-HBsAg IgG ELISA after rHBsAg vaccination of mice; type: in vivo, BALB/c mice; details: 14 days after second vaccination
[2] = tested on: antibody response to the HBsAg; experiment: ELISA of sera of mice immunised with HBsAg in SP50 adjuvant at different concentrations (Example 6); type: in vivo, Balb/c mice; details: s.c., 0.5 micrograms HBsAg with SP50 at 1 millimolar, 100 micromolar or 10 micromolar, boost day 14, bled 14 days later, all concentrations
Source text: FIG. 7: CCR4 antagonist SP50 (Compound VIII—AF-399/42016530—4-(1-benzofuran-2-ylcarbonyl)-1-[5-(benzylsulfanyl)-1,3,4-thiadiazol-2-yl]-3-hydroxy-5-(2-thienyl)-1,5-dihydro-2H-pyrrol-2-one. MW: 531.64. Formula: C26H17N3O4S3) enhances the immunogenicity of a vaccine in vivo. The graph in FIG. 7 depicts the results of an ELISA assay of sera of mice immunised with HBsAg in different concentrations of SP50 adjuvant or of HBsAg in DMSO (negative control) or of HBsAG in the commercially used vaccine composition Engerix™. […] Each line represents the mean of a group of 4 mice.
6 week old female Balb/c mice were used, and immunised with a recombinant Hepatitis B surface antigen (HBsAg) from Biospacific, 598 Horton St no 225, Emeryville Calif. 94608, Catalogue number J44050228 lot number 4475.
Groups of 4 mice were given 0.5 micrograms of HBsAg subcutaneously in 25 microlitres of saline with an equal volume of SP50 at concentrations of 1 millimolar, 100 micromolar or 10 micromolar. Controls received 0.5 micrograms of HBsAg plus 25 microlitres of DMSO (the vehicle used to dissolve the SP50). A second control group received a dose of the alum-adjuvanted commercial Hepatitis B vaccine “Engerix” containing 0.5 micrograms of HBsAg. 14 days later the mice were boosted in an identical fashion and they were bled out a further 14 days later. […]

[3] = tested on: PPD-reactive IFN-γ-secreting cells; experiment: T cell response (IFN-γ ELISPOT and CBA) in mice after MVA85A vaccination; type: in vivo, BALB/c mice; details: i.m., MVA85A plus ~2.5 μM antagonist, 6 days post vaccination, splenocytes, 20 μg/ml PPD; for frequency of PPD-reactive IFN-γ-secreting cells (ELISPOT): vs DMSO; for production of IFN-γ in PPD-stimulated cultures (supernatant, CBA): 18 h
CXCR4 = target: T1, CXCR4 (Homo sapiens, UniProt P61073); experiment: CXCL12-mediated (CXCR4) chemotaxis of CCRF-CEM cells, specificity; type: cell-based; details: 3 nM CXCL12; 2 μM CCR4 antagonists (1000 times higher than IC50); n=2
T1 construct: Expression of chemokine receptors CCR4 and CXCR4 by CCRF-CEM cells; endogenous in cells; host or cells: CCRF-CEM
Method: FIG. 2: Assessment of the specificity of CCR4 antagonists. (A) Expression of chemokine receptors CCR4 and CXCR4 by CCRF-CEM cells.
Cell migration was measured by chemotaxis through a 5 μm pore polycarbonate filter in 24-well transwell chambers (Costar, Cambridge, Mass.). Chemokines (R&D systems) were placed in lower chambers in 600 μl RPMI/1% FCS medium and cells were placed in upper chambers in 100 μl medium. After 2 h incubation at 37° C., cells in the lower chamber were recovered and counted with a FACSCalibur (Becton Dickinson, Mountain View, Calif.). Preliminary chemokine titration experiments established optimal doses for chemotaxis: (1) for CCRF-CEM cells, 6 nM CCL22 and 3 nM CCL17 or CXCL12; (2) for Tregs and Th2 cells, 1.2 nM CCL22 or CCL17. To assess CCR4 antagonism, candidate antagonist compounds (10 nM) were mixed directly with chemokines as indicated. Percent inhibition of chemotaxis by CCR4 antagonists was calculated in relation to controls treated with solvent (DMSO) alone as follows: ([no. cells migrated in the presence of DMSO—no. cells migrated in the presence of antagonist]/no. cells migrated in the presence of DMSO)×100. To measure IC50 values, graded doses of antagonists were added to a constant concentration of CCL22.
CCRF-CEM also expresses another chemokine receptor, CXCR4 (FIG. 2A), which allowed the specificity of the CCR4 antagonists to be tested. With the exception of one antagonist, the compounds had no effect on either CXCR4-mediated migration (FIG. 2B) or cell viability (data not shown), even at concentrations 1000 times higher than their IC50 values (˜2 μM)

CCR4 = target: T2, CCR4 (Mus musculus, UniProt P51680); experiment: CCR4-mediated migration of mouse cells in vitro; type: cell-based; details: data not shown
T2 construct: endogenous in cells
T2 sequence (P51680 1-360): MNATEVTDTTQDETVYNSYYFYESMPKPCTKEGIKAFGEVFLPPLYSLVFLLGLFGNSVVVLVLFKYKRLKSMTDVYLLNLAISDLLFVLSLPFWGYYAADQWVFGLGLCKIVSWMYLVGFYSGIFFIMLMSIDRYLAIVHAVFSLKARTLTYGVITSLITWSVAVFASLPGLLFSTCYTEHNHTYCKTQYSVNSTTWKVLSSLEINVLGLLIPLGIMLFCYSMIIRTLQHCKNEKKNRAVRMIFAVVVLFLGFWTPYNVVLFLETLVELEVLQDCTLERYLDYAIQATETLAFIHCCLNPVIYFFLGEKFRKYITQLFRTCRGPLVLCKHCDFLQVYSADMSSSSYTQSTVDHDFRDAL

[4] = tested on: CD4+CD25+ regulatory T cells; experiment: Cell viability of Tregs; type: cell-based, human

T1 sequence (P61073 whole entry): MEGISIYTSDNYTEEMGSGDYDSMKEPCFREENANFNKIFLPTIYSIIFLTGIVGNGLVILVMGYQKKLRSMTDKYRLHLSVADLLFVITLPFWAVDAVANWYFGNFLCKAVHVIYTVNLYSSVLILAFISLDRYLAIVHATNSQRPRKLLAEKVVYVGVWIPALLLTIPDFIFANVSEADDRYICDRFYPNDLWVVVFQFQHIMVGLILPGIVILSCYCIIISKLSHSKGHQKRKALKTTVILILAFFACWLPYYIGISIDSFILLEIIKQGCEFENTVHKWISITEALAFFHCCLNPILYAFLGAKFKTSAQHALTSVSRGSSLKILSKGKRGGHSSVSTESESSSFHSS

| SMILES | IgG subclass of anti-HBsAg IgG response [1] | titer of HBsAg specific antibodies (IgG, ELISA) ([1]; s.c., rHBsAg plus compound (~2.5 μM), vs DMSO) | antibody response to the HBsAg (ELISA of sera) [2] | frequency of PPD-reactive IFN-γ-secreting cells (ELISPOT) [3] | production of IFN-γ in PPD-stimulated cultures (supernatant, CBA) [3] | effect on CXCL12-mediated chemotaxis (CXCR4-mediated migration) of CCRF-CEM cells (CXCR4) | inhibition of CCR4-mediated migration of mouse cells in vitro (CCR4) | effect on cell viability [4] |
| --- | --- | --- | --- | --- | --- | --- | --- | --- |
| O=C(C1=C(O)C(=O)N(c2nnc(SCc3ccccc3)s2)C1c1cccs1)c1cc2ccccc2o1 (stereo not shown) [compound (VIII), 4-(1-benzofuran-2-ylcarbonyl)-1-[5-(benzylsulfanyl)-1,3,4-thiadiazol-2-yl]-3-hydroxy-5-(2-thienyl)-1,5-dihydro-2H-pyrrol-2-one] | predominantly of the IgG1 subtype | significantly enhanced the titer of HBsAg specific antibodies to a level similar to that of Engerix-B | greater than that to Engerix™ | significantly enhanced | significantly greater production | do not inhibit | inhibit | None of the compounds affected cell viability |
| O=C(CSc1nc(-c2ccccc2)c(-c2ccccc2)o1)Nc1ccc(S(=O)(=O)Nc2nccs2)cc1 [(XI)] |  |  |  |  |  | do not inhibit |  | None of the compounds affected cell viability |
| CCc1ccc(C2C(C(=O)c3cc4ccccc4o3)=C(O)C(=O)N2c2nnc(SCc3ccccc3F)s2)cc1 (stereo not shown) [(VI)] |  |  |  |  |  | do not inhibit |  | None of the compounds affected cell viability |
| O=C(C1=C(O)C(=O)N(c2nnc(SCc3ccccc3Cl)s2)C1c1ccc(Cl)c(Cl)c1)c1cc2ccccc2o1 (stereo not shown) [(III)] |  |  |  |  |  | do not inhibit |  | None of the compounds affected cell viability |
| O=C(C1=C(O)C(=O)N(c2nnc(SCc3ccc(Cl)cc3)s2)C1c1cccs1)c1cc2ccccc2o1 (stereo not shown) [(V)] |  |  |  | significantly enhanced | significantly greater production | do not inhibit | inhibit | None of the compounds affected cell viability |
